Assay results published in US5302604A, “Cholesterol lowering compounds produced by directed biosynthesis” (Merck & Co., Inc., priority 1992, dated 1994).

Biological target: T1, Squalene Synthetase (Rattus norvegicus, UniProt Q02769)
T1 construct: from tissue; host or cells: liver microsomes (100,000×g pellet) of male Charles River CD rats fed 0.1% lovastatin for 4 days
T1 sequence (Q02769 1-416): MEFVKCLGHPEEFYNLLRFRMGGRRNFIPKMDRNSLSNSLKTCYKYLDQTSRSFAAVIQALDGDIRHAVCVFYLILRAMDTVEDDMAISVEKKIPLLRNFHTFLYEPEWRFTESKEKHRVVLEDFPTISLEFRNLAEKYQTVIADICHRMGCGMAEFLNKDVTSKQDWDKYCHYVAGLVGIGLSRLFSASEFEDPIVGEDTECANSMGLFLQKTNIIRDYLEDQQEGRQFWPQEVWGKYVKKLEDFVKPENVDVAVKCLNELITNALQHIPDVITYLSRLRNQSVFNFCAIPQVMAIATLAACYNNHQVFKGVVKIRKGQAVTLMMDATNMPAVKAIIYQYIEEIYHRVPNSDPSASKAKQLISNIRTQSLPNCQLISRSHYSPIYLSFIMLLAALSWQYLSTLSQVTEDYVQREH
Test: Squalene synthetase assay (in vitro inhibition, conversion of [4-^14 C]farnesyl-pyrophosphate)
Format: biochemical
Settings: rat liver microsomes, 30° C., 20 minutes
Protocol: The intrinsic squalene synthetase inhibitory activity of representative compounds of this invention was measured by the standard in vitro protocol described below:
PREPARATION OF RAT LIVER MICROSOMES
Male, Charles River CD rats (120 to 150 g) were fed a diet containing 0.1% lovastatin for 4 days. The livers from these rats were homogenized in 5 volumes (mL/g) of ice cold 50 mM HEPES (4-(2-hydroxyethyl)-1-piperazine-ethanesulfonic acid), 5 mM EDTA (ethylenediaminetetraacetic acid) pH 7.5 with a Potter-Elvehjem type tissue grinder. The homogenate was centrifuged twice at 20,000×g for 15 min. at 4° C., discarding the pellet each time. The supernatant was then centrifuged at 100,000×g for 1 hr at 4° C. The resulting microsomal pellet was resuspended in a volume of the above homogenizing buffer equal to one-fifth the volume of the original homogenate. This microsomal preparation has a protein concentration of about 7 mg/mL. The microsomal suspensions were stored in aliquots at -70° C. Squalene synthetase activity in these aliquots is stable for a least several months.
Partial Purification of Prenyl Transferase
Prenyl transferase was purified to use in the enzymatic synthesis of radiolabelled farnesyl pyrophosphate. […]

IC50: 0.201 nM
SMILES: C=C(CCC12OC(C(=O)O)C(O)(C(=O)O)C(C(=O)O)(O1)C(OC(=O)/C=C/C(C)CC(C)CC)C2O)C(OC(C)=O)C(C)Cc1ccsc1 (stereo not shown)
